Marks after values point to notes of the source that are not given here.
Assays:
[1] = system: db/db mice; experiment: Increase in HDL-cholesterol levels in db/db mice; format: in vivo
Protocol: Increase in HDL-Cholesterol Levels in db/db Mice
In this experiment db/db mice were used in which PPARα expression is above normal (Memon et al., Endocrinology 2000, 4021-4031) and HDL-cholesterol levels are substantially elevated (Silver et al., J Biol Chem 1999, 274: 4140-4146).
The C57BL[KsJ db/db mice were acclimatised for one week in standard conditions (22±2° C.; 55±15% humidity; 15-20 air changes/hour; 12 hours light/darkness cycle with light from 7.00 a.m. to 7 p.m.) with a standard 4 RF21 diet (Mucedola). Blood samples were taken in post-absorption conditions (fasting from 8.30 a.m. to 4.30 p.m.) from the caudal vein with the aid of a Jelco 22G catheter (Johnson and Johnson). Glucose, insulin, triglyceride, cholesterol, free fatty acid and urea levels were checked in plasma for a homogeneous distribution of the mice in the treatment groups.
At the beginning of treatment the animals' body weight was checked and arrangements were made to monitor their water and feed consumption. […]
The compound tested, obtained as described in example 4 (ST 1929) was administered at the dose of 24 mg/kg in 10 ml/kg of vehicle (1% CMC containing Tween 80 0.5% in deionized H2O).
The other compounds tested were also administered at a dose equivalent to that in example 4.
Ciprofibrate, a known PPARα agonist (Varanasi et al., J Biol Chem 1996, 271: 2147-2155; Latruffe et al. Cell Biochem Biophys 2000, 32 Spring: 213-220) was administered at the dose of 20 mg/kg (Dwivedi et al., Toxicol Pathol 1989, 17: 16-26; Qi et al., Proc Natl Acad Sci USA 1999, 96: 1585-1590).
The animals were sacrificed (by decapitation) in conditions of post-absorption (fasting from 9.30 a.m. to 4.30 p.m.) 7 hours after the last treatment. The levels of a number of important lipid and carbohydrate metabolism parameters were determined in the serum.
The HDL-cholesterol levels were measured by treating the serum with phosphotungstic-acid-based precipitating reagent (ABX Diagnostics) which removes the chylomicrons, very low density and low density lipoproteins and determining the HDL-cholesterol levels in the supernatant with the aid of the Cholesterol Kit (ABX Diagnostics) and the Cobas Mira S Autoanalyzer (Roche).
In a further experiment, where the above reported ST2195 was used as reference compound, db/db mice were treated orally twice daily (8.30 a.m. and 6.30 p.m.) for 14 days with the test items (equimolar to 25 mg/kg of ST2 195) giving the following results reported in Table 3: […]

[2] = system: high-cholesterol diet-fed CD-1 mice; experiment: Hypolipidemic activity in high-cholesterol diet-fed CD-1 mice; format: in vivo; conditions: 16 days; for P-triglycerides / P-Cholesterol: post-absorptive state; for P-triglycerides: control 49 ± 3; for P-Cholesterol: control 350 ± 28
Protocol: High-Cholesterol Diet-Fed CD-1 Mice
ST2518, fenofibrate, rosiglitazone and pioglitazone (PPARγ agonists) were administered by gavage, for 16 days, to CD-1 mice fed with high-cholesterol diet, and plasma parameters were evaluated in post-absorptive state.

[3] = system: standard diet-fed c57bl/6j mice; experiment: Hypolipidemic activity in standard diet-fed c57bl/6j mice; format: in vivo; conditions: for Triglycerides (plasma): 15 days, post-absorptive state, control 53.8 ± 4.2
Protocol: Standard Diet-Fed c57bl/6j Mice
ST2518 was evaluated in comparison with fenofibrate also in c57b1/6j mice fed with standard diet (Table 5).

[4] = system: hAPO A I transgenic mice; experiment: Plasma lipid parameters in hAPO A I transgenic mice; format: in vivo; conditions: 16 days; for P-triglycerides / P-hdl-cholesterol: post-absorptive state; for P-triglycerides: control 75 ± 6; for P-hdl-cholesterol: control 163 ± 6
Protocol: ST2518, fenofibrate and rosiglitazone were administered by gavage for 16 days, and plasma (p) parameters were evaluated in post-absorptive state.

[5] = target: T1, Gal4DBD/PPARαLBD (Homo sapiens, UniProt Q07869); experiment: Transient transfection of COS-7 cells, Gal4DBD/PPARαLBD transactivation, CAT reporter (II method); format: cell-based; conditions: read-out: percentage activation of the CAT reporter gene compared to reference compound WY-14.643 2 μM taken as 100%
T1 construct: expressed in transfected cells; host or cells: COS-7 (monkey kidney fibroblasts)
T1 sequence (Q07869 239-466 limits assumed): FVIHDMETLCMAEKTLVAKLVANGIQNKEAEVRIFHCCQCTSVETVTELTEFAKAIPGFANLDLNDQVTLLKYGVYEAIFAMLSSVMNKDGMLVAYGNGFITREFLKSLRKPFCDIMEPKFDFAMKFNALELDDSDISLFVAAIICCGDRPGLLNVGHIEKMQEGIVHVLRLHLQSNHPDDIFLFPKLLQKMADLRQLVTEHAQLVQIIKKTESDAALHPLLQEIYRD
From the text: Transient Transfection of Eukaryotic Cells to Evaluate the Agonist Activity of PPARα Ligands (II Method)
An alternative transactivation system, which differs mainly in the way the receptor is positioned onto the DNA, and depending on how the event of ligand binding is translated into transcriptional activation, was used.
In this model eukaryotic cells were transiently transfected with an expression vector encoding a fusion protein between the DNA binding domain (DBD) of the yeast Gal4 transcription factor and the ligand binding domain (LBD) of the PPARα (Gal4DBD/PPARαLBD). The reporter vector containing 5 copies of the high affinity binding site for Gal4 (named UAS, upstream activating sequence) upstream of a strong viral promoter linked to the reporter gene chloramphenicol acetyltransferase (CAT), was co-transfected. This model offered some advantages, the most important of which was the absence of interference by endogenous receptors.
Besides expression and reporter vectors, cells were transfected with a control vector pCH110 that encodes the β-galactosidase enzyme to correct for differences in transfection efficiency.
A monkey kidney fibroblast cell line (COS-7) was used. Cells were co-transfected with the plasmid carrying the gene-reporter, the expression plasmid encoding the fusion protein Gal4DBD/PPARαLBD, and the control vector pCH110. Cells were then treated with increasing concentrations of test compounds and the CAT activity was measured. Untreated cells were used as control.
Monkey kidney fibroblasts (COS-7) were routinely grown in DMEM (Dulbecco's modified Eagle's medium) supplemented with 3.7 g/l sodium bicarbonate, 4 mM L-glutamine, 4.5 g/l glucose, 1 mM sodium piruvate and 10% v/v foetal bovine serum, in the presence of streptomycin 100 μg/ml and penicillin 100 U/ml.
COS-7 cells were transiently transfected by using the multi-component lipid-based FuGENE6 Transfection Reagent that complexes with and transports DNA into the cells during transfection. Cells were seeded at 1.2×10^5 cells/well, in 12-well plates, and cultured overnight at 37° C. in a 5% v/v carbon dioxide atmosphere. Two hours before transfection the culture medium was replaced by fresh serum-free medium and then transfection was performed with FuGENE6 Transfection Reagent according to the instructions of the manufacturer. Briefly, the transfection mixture containing (for each well) 0.8 μg of the expression vector, 1.6 μg of the reporter vector, 0.8 μg of the control vector and 9 μl of FuGENE6 Transfection Reagent was added directly to the cells in the presence of serum-free medium. After 5 hours the transfection medium was replaced by 1 ml of the complete culture medium with or without the test molecules at 3 different concentrations (2, 20 and 100 μM). 2 μM Wy-14,643, a known PPARα ligand, was used as positive control.
After 48 h, the cells were washed twice with 1 ml phosphate buffer (PBS) and then harvested by scraping them in TEN buffer (Tris [hydroxymethyl] aminomethane 10 mM pH 8, ethylenediamine tetraacetic acid 1 mM, pH 8, sodium chloride 0.1 M). Following centrifugation at room temperature, for 3 min at 1000 revs per minute (rpm), cells were resuspended with 60 μl of Lysis buffer (0.25M Tris-HCl, pH 8) and lysed by three rapid freeze/thaw cycles (three 5-minute cycles). Cell debris was then removed by centrifugating at 4° C., for 15 min at 15.000 revs per minute (rpm),. Glycerol (final 10% v/v) and β-mercaptoethanol (final 5 mM) were then added (final volume 75 μl) and the cell extracts were stored at −80° C. until assayed.
The CAT activity assay was performed as follows: 20 μl of cell lysate (pre-warmed at 65° C. for 10 min to deactivate internal deacetylase enzymatic activity) were added to 10 μl of 3.5 mg/ml n-butirryl-CoA, 5 μl ([…]) of [14C]-chloramphenicol and 65 μl of distilled H20 and incubated 2 h at 37° C. Reaction was blocked by adding 200 μl of the solution xylene/2,6,10,14 tetramethyl-pentadecane (in a 1:2 v/v mixture). […]

CC(C)OC(=O)C(C)(C)Oc1ccc(C(=O)c2ccc(Cl)cc2)cc1 [Fenofibrate, reference compound]
Increase in HDL/cholesterol levels (%) ([1]; 24.7 mg/kg, 25 days): +18%
Increase in HDL/cholesterol levels (%) ([1]; second experiment, 24.7 mg/kg, 16 days): +56[…] %
P-triglycerides ([2]; 26 mg/Kg/bid by gavage): 43 ± 3 mg/dL
P-Cholesterol ([2]; 26 mg/Kg/bid by gavage): 308 ± 18 mg/dL
Triglycerides (plasma) ([3]; 25 mg/kg/bid by gavage): 38.0 ± 2.9 Δ mg/dl
Triglycerides (plasma) ([3]; 75 mg/kg/bid by gavage): 34.4 ± 2.7 Δ mg/dl
Triglycerides (plasma) ([3]; 125 mg/kg/bid by gavage): 36.0 ± 1.2 Δ mg/dl
P-triglycerides ([4]; 26 mg/kg/bid by gavage): 78 ± 6 mg/dL

COc1ccc(OC(=O)N(CC(=O)O)Cc2ccc(OCCc3nc(-c4ccccc4)oc3C)cc2)cc1 [Muraglitazar, reference compound]
Triglycerides (plasma) ([3]; 5 mg/kg/bid by gavage): 45.6 ± 3.4 mg/dL

COC(=O)C(C)(C)Sc1ccc(OC(=O)NCc2ccc(OC)cc2)cc1 [ST2031, methyl 2-[4-[[(4-methoxybenzyl)carbamoyl]oxy]phenylthio]isobutyrate]
Increase in HDL/cholesterol levels (%) ([1]; oral twice daily, dose equivalent to 24 mg of ST1929, 10 days): +51 ▴ %
melting point: 64 to 65 °C

COC(=O)C(C)(C)Sc1cccc(OCc2ccc(-c3ccc([N+](=O)[O-])cc3)o2)c1 [ST2501, methyl 2-[3-[5-(4-nitrophenyl)furfuryl-oxy]phenylthio]isobutyrate]
activation at 2 µM ([5]; 2 μM): 85.7%
activation at 20 µM ([5]; 20 μM): 288%
activation at 100 µM ([5]; 100 μM): 231%
melting point: 81 to 82 °C

CC(C)(Sc1cccc(OCCc2ccc(Cl)cc2)c1)C(=O)O [ST2518, 2-[3-[2-(4-chlorophenyl)ethoxy]phenylthio]-2-methylpropanoic acid]
Increase in HDL-cholesterol levels (%) ([1]; further experiment, oral twice daily 14 days, dose equimolar to 25 mg/kg of ST2195, 8 hours after last treatment): +46Δ %
P-Cholesterol ([2]; 25 mg/Kg/bid by gavage): 200 ± 29 Δ mg/dL
effect on plasma-cholesterol and triglyceride levels (in words) ([2]; gavage, high-cholesterol diet): significantly reduced plasma-cholesterol and triglyceride levels
Triglycerides (plasma) ([3]; 5 mg/kg/bid by gavage): 29.4 ± 3.0 Δ mg/dl
Triglycerides (plasma) ([3]; 15 mg/kg/bid by gavage): 29.5 ± 3.4 Δ mg/dl
Triglycerides (plasma) ([3]; 25 mg/kg/bid by gavage): 24.6 ± 2.0 Δ mg/dl
effect on plasma triglyceride levels (in words) ([3]; treatment for 15 days, standard diet): significantly reduced plasma triglyceride levels to a higher extent than fenofibrate and muraglitazar
P-triglycerides ([4]; 25 mg/kg/bid by gavage): 36 ± 3 δ mg/dl
P-hdl-cholesterol ([4]; 25 mg/kg/bid by gavage): 252 ± 18 δ mg/dl
effect on HDL-cholesterol (in words) ([4]; gavage): increased HDL-cholesterol more than fenofibrate
effect on triglyceride levels (in words) ([4]; gavage): effective in reducing triglyceride levels
melting point: 105 to 106 °C

CC(C)(Sc1ccc(OCCc2ccc(Cl)cc2)cc1)C(=O)O [ST 2505, 2-[4-[2-(4-chlorophenyl)ethoxy]phenylthio]-2-methylpropanoic acid]
melting point: 87 to 88 °C

CCc1ccc(CCOc2ccc(CC3SC(=O)NC3=O)cc2)nc1 (stereo not shown) [pioglitazone]
P-triglycerides ([2]; 20 mg/Kg/bid by gavage): 43 ± 4 mg/dL
P-Cholesterol ([2]; 20 mg/Kg/bid by gavage): 345 ± 27 mg/dL

CN(CCOc1ccc(CC2SC(=O)NC2=O)cc1)c1ccccn1 (stereo not shown) [rosiglitazone, reference compound]
P-triglycerides ([2]; 5 mg/Kg/bid by gavage): 41 ± 3 mg/dL
P-Cholesterol ([2]; 5 mg/Kg/bid by gavage): 354 ± 23 mg/dL
P-triglycerides ([4]; 5 mg/kg/bid by gavage): 74 ± 10 mg/dL
P-hdl-cholesterol ([4]; 5 mg/kg/bid by gavage): 144 ± 18 mg/dL
